Measured values taken from ChEMBL document CHEMBL3526075, “Metabolism of the active metabolite of quetiapine, N-desalkylquetiapine in vitro” (Drug Metab Dispos, 2012).
Values belong to the compound of their own block, whether it stands above or below them.

How the values were obtained:
Type in all cases: ADME
[1] = test system: Liver microsome; assay: Drug metabolism in human liver microsomes treated with N-desalkylquetiapine at 3 uM after 30 mins by mass spectroscopy in presence of CYP2D6 inhibitor quinidine; conditions: 0.5 h
[2] = test system: Liver microsome; assay: Drug metabolism in human liver microsomes treated with N-desalkylquetiapine at 3 uM after 30 mins by mass spectroscopy in presence of CYP1A2 inhibitor fluvoxamine; conditions: 0.5 h
[3] = test system: Liver microsome; assay: Retention time in human liver microsomes after 30 to 60 mins by mass spectroscopy
[4] = test system: Liver microsome; assay: Drug metabolism in human liver microsomes treated with N-desalkylquetiapine at 3 uM after 30 mins by mass spectroscopy; conditions: 0.5 h
[5] = test system: Liver microsome; assay: Drug metabolism in human liver microsomes treated with N-desalkylquetiapine at 3 uM after 30 mins by mass spectroscopy in presence of CYP2C9 inhibitor sulfaphenazole; conditions: 0.5 h
[6] = test system: Liver microsome; assay: Drug metabolism in human liver microsomes treated with N-desalkylquetiapine at 3 uM after 30 mins by mass spectroscopy in presence of CYP3A4 inhibitor ketoconazole; conditions: 0.5 h
[7] = test system: Liver microsome; assay: Drug metabolism in human liver microsomes treated with N-desalkylquetiapine at 3 uM after 30 mins by mass spectroscopy in presence of CYP2C19 inhibitor benzylnirvanol; conditions: 0.5 h
[8] = biological target: T1, Cytochrome P450 3A4 (Homo sapiens, UniProt P08684); assay: Activity of human CYP3A4 expressed in supersomes co-expressing cytochrome P450 reductase assessed as N-desalkylquetiapine sulfoxide formation after 60 mins by LC-MS analysis; conditions: recombinant enzyme, 1 h
[9] = biological target: T2, Cytochrome P450 2D6 (Homo sapiens, UniProt P10635); assay: Activity of human CYP2D6 expressed in supersomes co-expressing cytochrome P450 reductase assessed as metabolite M3 formation after 60 mins by LC-MS analysis; conditions: recombinant enzyme, 1 h
[10] = Activity of cytochrome P450 in human liver microsomes assessed as metabolite M3 formation by LC-MS analysis
[11] = biological target: T1, Cytochrome P450 3A4; assay: Activity of human CYP3A4 expressed in xenosomes assessed as intrinsic clearance per pmol protein by LC-MS analysis
[12] = test system: Liver microsome; assay: Drug metabolism in human liver microsomes assessed as 7-hydroxy-N-desalkylquetiapine formation at 3 uM after 30 mins by mass spectroscopy in presence of CYP2C9 inhibitor sulfaphenazole; conditions: 0.5 h
[13] = test system: Liver microsome; assay: Drug metabolism in human liver microsomes assessed as N-desalkylquetiapine sulfoxide formation at 3 uM after 30 mins by mass spectroscopy in presence of CYP2C9 inhibitor sulfaphenazole; conditions: 0.5 h
[14] = test system: Liver microsome; assay: Drug metabolism in human liver microsomes assessed as 7-hydroxy-N-desalkylquetiapine formation at 3 uM after 30 mins by mass spectroscopy in presence of CYP2C19 inhibitor benzylnirvanol; conditions: 0.5 h
[15] = biological target: T2, Cytochrome P450 2D6; assay: Activity of human CYP2D6 expressed in supersomes co-expressing cytochrome P450 reductase assessed as N-desalkylquetiapine sulfoxide formation after 60 mins by LC-MS analysis; conditions: recombinant enzyme, 1 h
[16] = biological target: T2, Cytochrome P450 2D6; assay: Activity of human CYP2D6 expressed in supersomes co-expressing cytochrome P450 reductase assessed as intrinsic clearance per pmol protein by LC-MS analysis; conditions: recombinant enzyme
[17] = biological target: CYP3A4 (Homo sapiens, UniProt P08684); assay: Activity of human CYP3A4 expressed in xenosomes assessed as substrate depletion after 60 mins by LC-MS analysis; conditions: recombinant CYP3A4 expressed in xenosomes, read-out: Drug metabolism
[18] = test system: Liver microsome; assay: Drug metabolism in human liver microsomes assessed as 7-hydroxy-N-desalkylquetiapine formation at 3 uM after 30 mins by mass spectroscopy in presence of CYP2D6 inhibitor quinidine; conditions: 0.5 h
[19] = Activity of cytochrome P450 in human liver microsomes assessed as 7-hydroxy-N-desalkylquetiapine formation measured as substrate inhibition constant by LC-MS analysis
[20] = Activity of cytochrome P450 in human liver microsomes assessed as N-desalkylquetiapine sulfoxide formation measured as high-affinity/low-capacity binding constant by LC-MS analysis
[21] = test system: Liver microsome; assay: Drug metabolism in human liver microsomes assessed as N-desalkylquetiapine sulfoxide formation at 3 uM after 30 mins by mass spectroscopy in presence of CYP3A4 inhibitor ketoconazole; conditions: 0.5 h
[22] = biological target: CYP2D6 (Homo sapiens, UniProt P10635); assay: Activity of human CYP2D6 expressed in supersomes co-expressing cytochrome P450 reductase assessed as substrate depletion after 60 mins by LC-MS analysis; conditions: read-out: Drug metabolism
[23] = test system: Liver microsome; assay: Drug metabolism in human liver microsomes assessed as N-desalkylquetiapine sulfoxide formation at 3 uM after 30 mins by mass spectroscopy in presence of CYP2C19 inhibitor benzylnirvanol; conditions: 0.5 h
[24] = biological target: T2, Cytochrome P450 2D6; assay: Activity of human CYP2D6 expressed in supersomes co-expressing cytochrome P450 reductase assessed as 7-hydroxy-N-desalkylquetiapine formation after 60 mins by LC-MS analysis; conditions: recombinant enzyme, 1 h
[25] = test system: Liver microsome; assay: Drug metabolism in human liver microsomes assessed as 7-hydroxy-N-desalkylquetiapine formation at 3 uM after 30 mins by mass spectroscopy; conditions: 0.5 h
[26] = test system: Liver microsome; assay: Drug metabolism in human liver microsomes assessed as 7-hydroxy-N-desalkylquetiapine formation at 3 uM after 30 mins by mass spectroscopy in presence of CYP1A2 inhibitor fluvoxamine; conditions: 0.5 h
[27] = Activity of cytochrome P450 in human liver microsomes assessed as N-desalkylquetiapine sulfoxide formation measured as low-affinity/high-capacity binding constant by LC-MS analysis
[28] = biological target: T1, Cytochrome P450 3A4; assay: Activity of human CYP3A4 expressed in supersomes co-expressing cytochrome P450 reductase assessed as metabolite M3 formation after 60 mins by LC-MS analysis; conditions: recombinant enzyme, 1 h
[29] = test system: cytochrome P450; assay: Activity of cytochrome P450 in human liver microsomes by LC-MS analysis
[30] = test system: Liver microsome; assay: Drug metabolism in human liver microsomes assessed as N-desalkylquetiapine sulfoxide formation at 3 uM after 30 mins by mass spectroscopy; conditions: 0.5 h

T2 sequence (P10635 whole entry): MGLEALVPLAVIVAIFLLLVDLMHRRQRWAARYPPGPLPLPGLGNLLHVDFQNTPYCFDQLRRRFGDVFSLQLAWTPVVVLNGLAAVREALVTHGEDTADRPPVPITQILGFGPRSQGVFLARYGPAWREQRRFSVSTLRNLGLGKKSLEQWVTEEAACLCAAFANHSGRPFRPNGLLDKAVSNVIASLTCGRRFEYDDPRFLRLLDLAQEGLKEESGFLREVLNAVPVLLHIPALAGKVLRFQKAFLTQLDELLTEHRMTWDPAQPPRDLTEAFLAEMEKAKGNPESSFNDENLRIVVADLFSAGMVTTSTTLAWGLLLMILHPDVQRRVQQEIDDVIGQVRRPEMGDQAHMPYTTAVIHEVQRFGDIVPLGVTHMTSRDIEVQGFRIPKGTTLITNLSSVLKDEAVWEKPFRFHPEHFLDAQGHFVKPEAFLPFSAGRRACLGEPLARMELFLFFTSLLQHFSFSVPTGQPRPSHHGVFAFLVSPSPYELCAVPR
T1 sequence (P08684 whole entry): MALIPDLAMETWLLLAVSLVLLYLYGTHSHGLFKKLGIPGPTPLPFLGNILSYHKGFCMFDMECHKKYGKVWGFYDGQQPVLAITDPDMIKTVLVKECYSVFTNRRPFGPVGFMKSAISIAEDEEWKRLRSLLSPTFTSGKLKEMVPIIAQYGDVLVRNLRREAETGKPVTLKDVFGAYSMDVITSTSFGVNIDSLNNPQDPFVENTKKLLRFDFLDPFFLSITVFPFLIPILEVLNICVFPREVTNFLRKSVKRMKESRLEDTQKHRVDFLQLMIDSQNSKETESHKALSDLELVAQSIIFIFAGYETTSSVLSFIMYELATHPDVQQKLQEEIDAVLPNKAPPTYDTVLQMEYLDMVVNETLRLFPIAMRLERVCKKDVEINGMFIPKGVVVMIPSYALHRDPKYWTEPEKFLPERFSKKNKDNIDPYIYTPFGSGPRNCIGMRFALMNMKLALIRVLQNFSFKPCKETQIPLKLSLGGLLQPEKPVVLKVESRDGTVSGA
CYP2D6, sequence (P10635 whole entry): as the sequence (P10635 whole entry) above
CYP3A4, sequence (P08684 whole entry): as the sequence (P08684 whole entry) above

Drug metabolism [1]: metabolite_not_detected
Drug metabolism [2]: metabolite_detected
Retention_time [3]: 4.31 min
Drug metabolism [4]: metabolite_detected
Drug metabolism [5]: metabolite_detected
Drug metabolism [6]: metabolite_not_detected
Drug metabolism [7]: metabolite_detected
SMILES: Oc1ccc2c(c1)Sc1ccccc1C(N1CCNCC1)=N2

Drug metabolism [1]: metabolite_not_detected
Drug metabolism [2]: metabolite_detected
Retention_time [3]: 3.98 min
Drug metabolism [4]: metabolite_detected
Drug metabolism [5]: metabolite_detected
Drug metabolism [6]: metabolite_not_detected
Drug metabolism [7]: metabolite_detected
SMILES: [O-][S+]1c2ccccc2N=C(N2CCNCC2)c2ccccc21 (configuration not stated)

Drug metabolism [8]: metabolite_detected
Drug metabolism [9]: metabolite_detected
Km [10]: 199 µM
CL [11]: 0.25 µL/min
Drug metabolism [12]: metabolite_detected
Drug metabolism [13]: metabolite_detected
Drug metabolism [14]: metabolite_detected
Drug metabolism [15]: metabolite_detected
CL [16]: 3 µL/min
metabolised at 1 h [17]: 6%
Drug metabolism [18]: metabolite_not_detected
Kis [19]: 824 µM
Km [20]: 15 µM
Drug metabolism [21]: metabolite_not_detected
metabolised at 1 h [22]: 47%
Drug metabolism [23]: metabolite_detected
Drug metabolism [24]: metabolite_detected
Drug metabolism [25]: metabolite_detected
Drug metabolism [26]: metabolite_detected
Km [27]: 459 µM
Drug metabolism [28]: metabolite_detected
Km [29]: 110 µM
Drug metabolism [30]: metabolite_detected
SMILES: c1ccc2c(c1)N=C(N1CCNCC1)c1ccccc1S2
